Assay results taken from ChEMBL document CHEMBL1201862, “PubChem BioAssay data set” (2004).
Activity calls are given as the source filed them.

How the values were obtained:
[1] = molecular target: T1, Alkaline phosphatase, tissue-nonspecific isozyme (Homo sapiens, UniProt P05186); experiment: human TNAP enzyme inhibitors, SAR follow-up, biochemical, luminescent, dose response (AID 1056)
T1 sequence (P05186 whole entry): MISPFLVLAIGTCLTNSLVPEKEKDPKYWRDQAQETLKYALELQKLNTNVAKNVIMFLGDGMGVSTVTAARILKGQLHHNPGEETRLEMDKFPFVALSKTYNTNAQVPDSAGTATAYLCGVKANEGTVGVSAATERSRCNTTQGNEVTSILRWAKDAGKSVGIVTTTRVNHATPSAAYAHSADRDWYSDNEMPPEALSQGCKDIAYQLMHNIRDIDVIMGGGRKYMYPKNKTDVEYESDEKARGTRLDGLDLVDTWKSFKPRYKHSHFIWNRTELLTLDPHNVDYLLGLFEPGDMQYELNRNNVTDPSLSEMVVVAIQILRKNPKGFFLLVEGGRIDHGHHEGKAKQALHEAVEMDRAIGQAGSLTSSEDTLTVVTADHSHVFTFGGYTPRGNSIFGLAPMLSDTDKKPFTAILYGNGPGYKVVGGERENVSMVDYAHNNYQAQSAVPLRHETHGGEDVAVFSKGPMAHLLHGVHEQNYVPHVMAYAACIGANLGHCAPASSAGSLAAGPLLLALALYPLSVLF

[2] = molecular target: Glyceraldehyde-3-phosphate dehydrogenase (Homo sapiens, UniProt P04406)
Sequence of Glyceraldehyde-3-phosphate dehydrogenase (P04406 whole entry): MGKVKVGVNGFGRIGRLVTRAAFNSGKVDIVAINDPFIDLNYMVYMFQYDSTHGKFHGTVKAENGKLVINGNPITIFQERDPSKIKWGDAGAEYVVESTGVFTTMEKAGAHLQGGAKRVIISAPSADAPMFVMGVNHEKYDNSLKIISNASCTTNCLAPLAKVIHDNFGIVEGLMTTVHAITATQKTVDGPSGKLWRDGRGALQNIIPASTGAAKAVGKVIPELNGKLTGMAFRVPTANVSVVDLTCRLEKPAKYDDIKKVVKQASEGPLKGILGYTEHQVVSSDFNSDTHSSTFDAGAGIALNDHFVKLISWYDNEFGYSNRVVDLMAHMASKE

H9c2 = experiment: cells; type: functional, cell-based; conditions: Rattus norvegicus, H9c2, Myocardium;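 note: confirmatory concentration-response retest of ultra-high-throughput screening hits for modulation of myocardial damage; cell death induced by hydrogen peroxide oxidative stress; compound pretreatment for 60 min then peroxide exposure for 2 h; potency is for protecting the cells against peroxide damage rather than for killing them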
Nonstructural protein 1 = Nonstructural protein 1 (Influenza A virus, UniProt Q194T2); type: functional, Influenza A virus (A/California/07/2009(H1N1))
Sequence of Nonstructural protein 1 (Q194T2 whole entry): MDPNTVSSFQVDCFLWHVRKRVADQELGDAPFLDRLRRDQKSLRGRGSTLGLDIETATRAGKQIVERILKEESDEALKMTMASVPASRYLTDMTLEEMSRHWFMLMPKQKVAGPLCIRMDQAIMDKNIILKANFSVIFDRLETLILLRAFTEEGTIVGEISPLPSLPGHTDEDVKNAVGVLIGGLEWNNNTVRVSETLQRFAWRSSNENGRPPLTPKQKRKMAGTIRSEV

Bcl-2-like protein 10 = molecular target: T2, Bcl-2-like protein 10 (Homo sapiens, UniProt Q9HD36); experiment: displacers of TR3 peptide from Bcl-B, primary screen, selectivity assay for Bfl-1 inhibitor project, biochemical, fluorescence polarization, FITC-TR3 peptide (AID 748);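 note: fluorescence polarization from a fluorescein-labelled TR3 peptide binding purified Bcl-B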
T2 sequence (Q9HD36 whole entry): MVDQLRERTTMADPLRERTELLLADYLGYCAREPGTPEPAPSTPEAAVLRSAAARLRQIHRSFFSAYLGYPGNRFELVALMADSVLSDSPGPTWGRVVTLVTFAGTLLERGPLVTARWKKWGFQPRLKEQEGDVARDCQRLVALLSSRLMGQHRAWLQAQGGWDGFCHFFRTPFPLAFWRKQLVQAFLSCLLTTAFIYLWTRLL

[3] = molecular target: T3, RNA-binding protein pos-1 (Caenorhabditis elegans, UniProt G5EF15); experiment: inhibitors of POS-1/mex-3 RNA binding, dose response, biochemical, fluorescence polarization (AID 1964);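 note: purified POS-1 fused to maltose binding protein made in E. coli; potency of compounds blocking POS-1 binding to fluorescent RNA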
T3 sequence (G5EF15 whole entry): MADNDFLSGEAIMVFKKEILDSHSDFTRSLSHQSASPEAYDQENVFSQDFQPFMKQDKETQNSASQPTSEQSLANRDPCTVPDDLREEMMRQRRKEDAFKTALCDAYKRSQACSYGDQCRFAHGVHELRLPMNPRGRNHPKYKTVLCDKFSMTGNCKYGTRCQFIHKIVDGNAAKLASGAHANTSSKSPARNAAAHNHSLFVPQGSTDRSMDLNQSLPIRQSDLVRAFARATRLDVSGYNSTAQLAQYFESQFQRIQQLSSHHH

[4] = molecular target: Glucose-6-phosphate 1-dehydrogenase (Homo sapiens, UniProt P11413); experiment: human G6PD enzyme inhibitors, dose response, selectivity assay for P. falciparum G6PD inhibitor project, biochemical, fluorescence (AID 504792); type: functional
Sequence of Glucose-6-phosphate 1-dehydrogenase (P11413 whole entry): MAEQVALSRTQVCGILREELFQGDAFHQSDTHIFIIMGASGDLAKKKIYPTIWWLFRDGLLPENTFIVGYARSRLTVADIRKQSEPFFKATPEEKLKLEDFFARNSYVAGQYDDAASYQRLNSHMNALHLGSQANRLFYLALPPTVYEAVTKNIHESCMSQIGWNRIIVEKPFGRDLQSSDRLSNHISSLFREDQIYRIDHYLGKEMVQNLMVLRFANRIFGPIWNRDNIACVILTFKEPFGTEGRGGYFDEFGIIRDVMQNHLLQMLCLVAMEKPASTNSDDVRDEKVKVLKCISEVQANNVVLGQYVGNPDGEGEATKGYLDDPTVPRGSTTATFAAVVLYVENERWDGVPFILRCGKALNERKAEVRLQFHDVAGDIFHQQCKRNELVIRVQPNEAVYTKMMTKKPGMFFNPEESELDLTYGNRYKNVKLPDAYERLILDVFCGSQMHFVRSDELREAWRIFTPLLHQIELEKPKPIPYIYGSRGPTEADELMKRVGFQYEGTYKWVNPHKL

[5] = molecular target: T4, Apoptotic protease-activating factor 1 (Homo sapiens, UniProt O14727); type: functional
T4 sequence (O14727 whole entry): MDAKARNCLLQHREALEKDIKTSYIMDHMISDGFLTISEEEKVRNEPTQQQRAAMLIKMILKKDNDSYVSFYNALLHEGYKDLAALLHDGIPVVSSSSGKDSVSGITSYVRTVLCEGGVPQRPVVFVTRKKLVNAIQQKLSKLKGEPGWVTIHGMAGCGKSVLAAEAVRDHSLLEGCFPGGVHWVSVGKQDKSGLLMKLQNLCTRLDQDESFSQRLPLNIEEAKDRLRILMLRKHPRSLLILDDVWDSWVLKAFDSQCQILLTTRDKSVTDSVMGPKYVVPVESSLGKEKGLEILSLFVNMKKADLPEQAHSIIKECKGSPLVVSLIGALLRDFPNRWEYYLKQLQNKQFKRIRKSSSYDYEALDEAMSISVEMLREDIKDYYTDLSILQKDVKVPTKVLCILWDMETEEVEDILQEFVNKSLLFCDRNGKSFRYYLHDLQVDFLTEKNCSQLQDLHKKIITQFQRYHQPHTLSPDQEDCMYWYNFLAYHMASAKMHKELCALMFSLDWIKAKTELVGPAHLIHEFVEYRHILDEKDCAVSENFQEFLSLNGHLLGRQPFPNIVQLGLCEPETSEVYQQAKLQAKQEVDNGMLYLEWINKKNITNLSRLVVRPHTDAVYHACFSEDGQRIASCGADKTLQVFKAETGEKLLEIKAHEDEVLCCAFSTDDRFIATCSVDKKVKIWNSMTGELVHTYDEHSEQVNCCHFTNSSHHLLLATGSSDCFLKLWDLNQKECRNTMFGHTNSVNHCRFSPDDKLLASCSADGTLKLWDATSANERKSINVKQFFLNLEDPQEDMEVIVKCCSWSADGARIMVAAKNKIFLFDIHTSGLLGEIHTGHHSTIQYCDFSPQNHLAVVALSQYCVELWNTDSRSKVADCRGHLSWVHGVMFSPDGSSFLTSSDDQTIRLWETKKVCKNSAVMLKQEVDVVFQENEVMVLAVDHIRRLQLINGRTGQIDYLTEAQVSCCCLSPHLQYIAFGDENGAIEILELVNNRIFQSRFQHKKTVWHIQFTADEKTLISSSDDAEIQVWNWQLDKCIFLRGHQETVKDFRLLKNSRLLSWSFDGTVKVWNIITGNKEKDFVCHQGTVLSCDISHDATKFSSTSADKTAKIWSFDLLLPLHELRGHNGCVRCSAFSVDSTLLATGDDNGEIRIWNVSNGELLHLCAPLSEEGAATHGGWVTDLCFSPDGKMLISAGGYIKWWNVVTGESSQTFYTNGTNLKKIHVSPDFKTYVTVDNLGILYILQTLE

Hexokinase HKDC1 = molecular target: T5, Hexokinase HKDC1 (Homo sapiens, UniProt Q2TB90); experiment: HKDC1 hexokinase inhibitors, dose response, biochemical, W721R variant (AID 504729); type: functional
T5 sequence (Q2TB90 whole entry): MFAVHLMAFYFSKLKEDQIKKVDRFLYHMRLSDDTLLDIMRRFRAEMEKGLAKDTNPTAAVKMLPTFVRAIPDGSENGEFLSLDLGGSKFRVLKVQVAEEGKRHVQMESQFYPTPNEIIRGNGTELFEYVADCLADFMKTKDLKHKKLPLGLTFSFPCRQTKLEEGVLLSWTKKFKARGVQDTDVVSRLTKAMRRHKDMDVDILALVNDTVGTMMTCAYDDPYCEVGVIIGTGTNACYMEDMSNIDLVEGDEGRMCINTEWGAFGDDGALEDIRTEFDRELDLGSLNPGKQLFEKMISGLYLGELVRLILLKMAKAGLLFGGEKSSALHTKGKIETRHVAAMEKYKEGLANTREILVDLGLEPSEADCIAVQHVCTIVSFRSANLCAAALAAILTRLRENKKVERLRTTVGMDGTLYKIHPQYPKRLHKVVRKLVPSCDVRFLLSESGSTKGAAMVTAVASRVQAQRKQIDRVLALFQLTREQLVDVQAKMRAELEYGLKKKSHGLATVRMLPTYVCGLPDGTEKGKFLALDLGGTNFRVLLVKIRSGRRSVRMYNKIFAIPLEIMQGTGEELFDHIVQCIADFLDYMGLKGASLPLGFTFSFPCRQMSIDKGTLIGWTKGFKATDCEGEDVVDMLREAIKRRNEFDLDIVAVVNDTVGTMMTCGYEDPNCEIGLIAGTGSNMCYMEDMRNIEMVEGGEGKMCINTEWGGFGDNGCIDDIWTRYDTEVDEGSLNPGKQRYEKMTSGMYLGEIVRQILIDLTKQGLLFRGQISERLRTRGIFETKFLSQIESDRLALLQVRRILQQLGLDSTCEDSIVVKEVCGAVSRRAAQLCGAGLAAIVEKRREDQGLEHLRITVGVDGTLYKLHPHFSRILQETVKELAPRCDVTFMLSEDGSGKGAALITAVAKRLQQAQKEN

[6] = molecular target: T6, Zinc finger protein mex-5 (Caenorhabditis elegans, UniProt Q9XUB2); experiment: MEX-5/TCR-2 RNA interaction inhibitors, dose response, biochemical, C. elegans, fluorescence polarization (AID 1960)
T6 sequence (Q9XUB2 whole entry): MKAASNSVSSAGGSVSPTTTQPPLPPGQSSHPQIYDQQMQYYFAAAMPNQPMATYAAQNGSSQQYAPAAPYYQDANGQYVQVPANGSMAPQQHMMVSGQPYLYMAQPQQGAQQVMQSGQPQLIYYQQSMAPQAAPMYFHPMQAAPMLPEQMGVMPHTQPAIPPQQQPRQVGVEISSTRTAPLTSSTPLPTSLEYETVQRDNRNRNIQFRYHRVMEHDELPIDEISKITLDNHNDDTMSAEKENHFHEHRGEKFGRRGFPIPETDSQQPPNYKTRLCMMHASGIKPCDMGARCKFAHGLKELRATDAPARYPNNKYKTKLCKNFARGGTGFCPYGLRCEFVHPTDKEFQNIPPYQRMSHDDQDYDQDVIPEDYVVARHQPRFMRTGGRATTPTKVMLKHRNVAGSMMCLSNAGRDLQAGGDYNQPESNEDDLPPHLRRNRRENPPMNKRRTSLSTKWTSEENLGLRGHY

[7] = molecular target: T7, Ubiquitin-conjugating enzyme E2 N (Homo sapiens, UniProt P61088); type: functional;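 note: Dose-response confirmation in a TR-FRET assay detecting UBC13-driven polyubiquitin chain formation, inhibition measured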
T7 sequence (P61088 whole entry): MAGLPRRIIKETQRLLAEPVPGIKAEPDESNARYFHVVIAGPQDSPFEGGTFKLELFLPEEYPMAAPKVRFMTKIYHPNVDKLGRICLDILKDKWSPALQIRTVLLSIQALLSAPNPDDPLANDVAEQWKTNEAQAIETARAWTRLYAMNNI

Streptococcus = experiment: Group A Streptococcus viability loss, dose response, counter-screen for streptokinase expression inhibitor project, luminescence, BacTiterGlo (AID 1915); type: functional, organism-based;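 note: potency for reduction of bacterial viability or growth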
[8] = molecular target: DNA dC->dU-editing enzyme APOBEC-3A (Homo sapiens, UniProt P31941); experiment: APOBEC3A DNA deaminase inhibitors, dose response, biochemical (AID 504722); type: functional
Sequence of DNA dC->dU-editing enzyme APOBEC-3A (P31941 whole entry): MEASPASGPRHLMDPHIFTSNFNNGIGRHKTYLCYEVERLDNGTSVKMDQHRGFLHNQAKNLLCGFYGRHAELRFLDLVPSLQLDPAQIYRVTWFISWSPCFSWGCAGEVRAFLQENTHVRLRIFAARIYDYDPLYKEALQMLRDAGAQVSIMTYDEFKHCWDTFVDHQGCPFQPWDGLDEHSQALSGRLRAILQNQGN

[9] = molecular target: Eukaryotic translation initiation factor 4E (Mus musculus, UniProt P63073); experiment: eIF4E–eIF4G protein interaction inhibitors, dose response, biochemical, TR-FRET (AID 855); type: functional;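 note: potency for disrupting eIF4E binding to eIF4GI seen as loss of FRET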
Sequence of Eukaryotic translation initiation factor 4E (P63073 whole entry): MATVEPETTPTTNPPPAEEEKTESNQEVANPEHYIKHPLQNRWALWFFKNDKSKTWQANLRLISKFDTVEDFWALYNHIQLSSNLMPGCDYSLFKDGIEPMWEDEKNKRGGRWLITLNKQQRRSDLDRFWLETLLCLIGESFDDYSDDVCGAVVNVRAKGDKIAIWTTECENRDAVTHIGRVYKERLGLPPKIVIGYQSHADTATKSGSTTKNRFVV

[10] = molecular target: DNA dC->dU-editing enzyme APOBEC-3G (Homo sapiens, UniProt Q9HC16); experiment: Dose Response confirmation of small molecule APOBEC3G DNA Deaminase Inhibitors via a fluorescence-based single-stranded DNA deaminase assay. [Related pubchem assays (depositor defined):AID493012, AID493028]; type: functional
Sequence of DNA dC->dU-editing enzyme APOBEC-3G (Q9HC16 whole entry): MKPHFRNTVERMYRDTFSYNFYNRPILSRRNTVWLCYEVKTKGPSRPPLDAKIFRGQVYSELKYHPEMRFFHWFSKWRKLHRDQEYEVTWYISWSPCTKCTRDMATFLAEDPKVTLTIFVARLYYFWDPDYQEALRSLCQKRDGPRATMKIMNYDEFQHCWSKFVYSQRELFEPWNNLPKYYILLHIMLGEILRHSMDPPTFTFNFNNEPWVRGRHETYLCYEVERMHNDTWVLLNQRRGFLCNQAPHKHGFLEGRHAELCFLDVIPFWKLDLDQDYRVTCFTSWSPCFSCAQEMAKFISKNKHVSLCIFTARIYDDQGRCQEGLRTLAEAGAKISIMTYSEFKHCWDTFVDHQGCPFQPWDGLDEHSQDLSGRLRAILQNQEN

[11] = tested on: Streptococcus sp. 'group A'; experiment: growth inhibition of control SK(-) GAS strain, dose response, counter-screen for streptokinase expression inhibitor project, luminescence, kanamycin, BacTiterGlo, confirmation (AID 1900); type: functional, organism-based
Streptokinase A = molecular target: T8, Streptokinase A (Streptococcus pyogenes serotype M1, UniProt P10520); experiment: S. pyogenes streptokinase expression inhibitors, potency, dose response, plasminogen activation absorbance, OD405 (AID 1914); type: functional, Streptococcus pyogenes M1 GAS;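 note: secreted streptokinase activity via plasminogen activation per viability signal from cell pellet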
T8 sequence (P10520 whole entry): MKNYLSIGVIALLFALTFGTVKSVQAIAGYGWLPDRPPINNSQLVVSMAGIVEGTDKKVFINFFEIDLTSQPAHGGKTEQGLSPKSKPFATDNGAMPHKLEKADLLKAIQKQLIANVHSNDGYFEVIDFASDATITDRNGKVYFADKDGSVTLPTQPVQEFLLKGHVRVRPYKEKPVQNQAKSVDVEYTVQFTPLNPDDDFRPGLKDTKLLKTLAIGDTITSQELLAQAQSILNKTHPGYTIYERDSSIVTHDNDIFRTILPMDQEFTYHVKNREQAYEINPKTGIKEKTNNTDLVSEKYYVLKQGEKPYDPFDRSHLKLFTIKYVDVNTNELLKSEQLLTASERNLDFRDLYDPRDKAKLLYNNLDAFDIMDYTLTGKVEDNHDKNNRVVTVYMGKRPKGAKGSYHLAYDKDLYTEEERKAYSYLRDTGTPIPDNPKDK

O=S(=O)(Nc1ccc2ccccc2c1)c1cc(Cl)ccc1F
IC50 [1]: > 10 µM (inactive) | IC50 [2]: > 10 µM (inconclusive)

C[C@@H](C(=O)Nc1nc(-c2ccccn2)cs1)N1C(=O)C2CCCCC2C1=O (some centres not stated)
IC50 (H9c2): 8.43 µM (active) | IC50 (Nonstructural protein 1): 8.38 µM (active) | IC50 (Bcl-2-like protein 10): 96 µM (inactive)

Cc1ccccc1N1C(=O)c2sc3nc4c(c(=O)n3c2C1=O)CCC4
IC50 (Bcl-2-like protein 10): 54.9 µM (inactive)

C=CCN1C=C2C(=O)C(C)(OC(=O)CCC(=O)OC)C(=O)C(Br)=C2C=C1c1ccc(OC)cc1 (configuration not stated)
EC50 [3]: 50.2 µM (active) | IC50 [4]: 29.9 µM (inactive) | IC50 [5]: 32.6 µM (active) | IC50 (Hexokinase HKDC1): 24.6 µM (inactive) | EC50 [6]: 42.8 µM (active)

CC(C)CC(C(=O)NC(C)(C)C)N(Cc1cccs1)C(=O)c1snc(C(N)=O)c1N (configuration not stated)
IC50 [7]: > 20 µM (inactive)

NC(=S)N=Nc1c(O)n(Cc2ccc(F)cc2)c2ccccc12
IC50 [7]: > 20 µM (inactive)

COC(=O)c1ccc(CSc2nnc(S)s2)o1
EC50 (Streptococcus): 9.6 µM (active) | IC50 [8]: > 100 µM (inactive) | IC50 [9]: > 64 µM (inactive) | IC50 [10]: 5.99 µM (active) | EC50 [11]: 5.69 µM (active) | EC50 (Streptokinase A): 5.61 µM (active)

CC(C)CNC(=O)c1cc(-c2cc(F)c(Cl)cc2Cl)n[nH]1
IC50 [1]: 0.27 µM (active) | IC50 [2]: > 10 µM (inconclusive)

CC(C)Cn1c(S)nnc1-c1cccc(S(=O)(=O)N2CCOCC2)c1
IC50 [8]: > 100 µM (inactive) | IC50 [10]: 5.37 µM (active)

Sc1nnc(-c2ccccn2)n1/N=C/c1c(Cl)cccc1Cl
IC50 [8]: > 100 µM (inactive) | IC50 [10]: 4.67 µM (active)

COc1ccc(OC)c(CNc2cnc3ccccc3c2)c1
IC50 [1]: > 100 µM (inactive) | IC50 [2]: > 100 µM (not active)
